Data reported in patent publication US12599554B2, “Pharmaceutical formulations comprising tadalafil” (KYDES PHARMACEUTICALS, LLC, priority 2020, dated 2026).

Legend:
[1] = Solubility of tadalafil in aqueous media and solvents; precipitation on adding water; assay type: physicochemical
Text: Tadalafil is soluble in 2-pyrollidone, but the use of 2-pyrollidone as a solvent is limited by color formation, unpalatable taste, and incompatibility with plastic components of metered-dose delivery systems. […] Compatibility with the pumps was improved with water in an amount of at least 10% weight in volume.

[2] = cited from earlier work
[3] = cited from earlier work; remark: listed apart in the source

solubility in 2-pyrollidone ([1]; 2-pyrollidone): soluble
solubility in propylene carbonate ([1]; propylene carbonate): soluble
Compound: CN1CC(=O)N2[C@H](c3ccc4c(c3)OCO4)c3[nH]c4ccccc4c3C[C@@H]2C1=O [Tadalafil, (2R,8R)-2-(1,3-benzodioxol-5-yl)-6-methyl-3,6,17-triazatetracyclo[8.7.0.0^3,8.0^11,16]heptadeca-1(10),11,13,15-tetraene-4,7-dione]
solubility in aqueous media [2]: insoluble
bioavailability in humans [3]: 80%
